Source: ChEMBL document CHEMBL1201862, “PubChem BioAssay data set” (2004)
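Protocol summary: plate cells (96-well), add compound at 5 concentrations, incubate 48 h, interpolate endpoints linearly. Abbreviation: GI50, concentration required for 50% inhibition of growth.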 Activity calls are given as the source filed them. Cut-off read from the data, not from the text of the source: active = GI50 up to about 1.1 µM and inactive = higher.

Experiments:
Assay in all cases: NCI-60 cell line screen, 48 h
UACC-62 = system: UACC-62
M14 = system: M14
SK-MEL-28 = system: SK-MEL-28
COLO 205 = system: COLO 205
LOX IMVI = system: LOX IMVI
UACC-257 = system: UACC-257
SR = system: SR
786-0 = system: 786-0
MDA-MB-435 = system: MDA-MB-435
SNB-75 = system: SNB-75
SK-OV-3 = system: SK-OV-3
UO-31 = system: UO-31
HCT-116 = system: HCT-116
CCRF-CEM = system: CCRF-CEM
SW-620 = system: SW-620
A549 = system: A549
SF-295 = system: SF-295
IGROV-1 = system: IGROV-1
HOP-92 = system: HOP-92
NCI-H226 = system: NCI-H226

Measured: GI50

CC1OC(OC2C(O)COC(OC3C(C)OC(OC4C(OC(=O)[C@]56CCC(C)(C)C[C@@H]5C5=CCC7[C@@]8(C)C[C@H](O)[C@H](OC9OC(CO)C(O)C(OC%10OC(CO)C(O)C(O)C%10O)C9O)[C@@](C)(CO)[C@@H]8CC[C@@]7(C)[C@]5(C)CC6)OCC(O)C4O)C(O)C3OC3OCC(O)C(O)C3O)C2O)C(O)C(O)C1O (stereo not given in full)
inactive: UACC-62 3.66 µM | M14 1.87 µM | SK-MEL-28 2.27 µM | COLO 205 1.92 µM | LOX IMVI 13.2 µM | UACC-257 4.63 µM | SR 7.08 µM | 786-0 5.53 µM | MDA-MB-435 2.66 µM | SNB-75 16 µM | SK-OV-3 14.8 µM | UO-31 3.15 µM | HCT-116 11.3 µM | CCRF-CEM 10.4 µM | SW-620 6.35 µM | A549 2.11 µM | SF-295 3.14 µM | IGROV-1 6.12 µM | HOP-92 12.3 µM | NCI-H226 7.82 µM

C#C[C@]1(O)CC[C@H]2[C@@H]3CCC4=C/C(=N/OC(=O)c5cccc6c(=O)c7ccccc7[nH]c56)CCC4[C@H]3CC[C@@]21CC (stereo not given in full)
inactive: UACC-62 20.4 µM | M14 34.5 µM | SK-MEL-28 22 µM | COLO 205 37.2 µM | LOX IMVI 15.7 µM | UACC-257 11.3 µM | SR 3.25 µM | 786-0 4.91 µM | MDA-MB-435 26.5 µM | SNB-75 9.18 µM | SK-OV-3 63.1 µM | UO-31 23.2 µM | HCT-116 25 µM | CCRF-CEM 8.05 µM | SW-620 24 µM | A549 41.7 µM | SF-295 3.69 µM | IGROV-1 27.3 µM | HOP-92 42.6 µM | NCI-H226 > 48.9 µM

NS(=O)(=O)c1ccc(/N=N/c2nc3[nH]cnc(=S)c3[nH]2)cc1
active: UACC-62 0.388 µM | M14 0.369 µM | LOX IMVI 0.236 µM | SR 0.0803 µM | 786-0 0.507 µM | MDA-MB-435 0.975 µM | SK-OV-3 0.411 µM | UO-31 0.849 µM | HCT-116 0.568 µM | CCRF-CEM 0.0902 µM
inactive: SK-MEL-28 10.6 µM | COLO 205 2.43 µM | UACC-257 2.94 µM | SNB-75 2.05 µM | SW-620 2.29 µM | A549 4.93 µM | SF-295 1.59 µM | IGROV-1 7.29 µM | HOP-92 11.1 µM | NCI-H226 4.65 µM

O=C(O)Cc1cc(Cl)ccc1O
inactive: UACC-62 > 100 µM | M14 > 100 µM | SK-MEL-28 > 100 µM | COLO 205 > 100 µM | LOX IMVI > 100 µM | UACC-257 > 100 µM | SR > 76.9 µM | 786-0 > 100 µM | MDA-MB-435 > 100 µM | SNB-75 > 100 µM | SK-OV-3 > 100 µM | UO-31 > 100 µM | HCT-116 > 100 µM | CCRF-CEM > 100 µM | SW-620 > 100 µM | A549 > 100 µM | SF-295 > 100 µM | IGROV-1 > 100 µM | HOP-92 > 100 µM | NCI-H226 > 100 µM

CC(CN(C)C)C(=O)/C=C/c1ccc(Cl)c(Cl)c1 (stereo not given)
inactive: UACC-62 1.8 µM | M14 2.09 µM | SK-MEL-28 3.37 µM | COLO 205 1.3 µM | LOX IMVI 1.56 µM | UACC-257 2.38 µM | MDA-MB-435 1.63 µM | SNB-75 19.1 µM | SK-OV-3 4.55 µM | UO-31 1.69 µM | HCT-116 1.56 µM | SW-620 2.07 µM | A549 3.33 µM | SF-295 3.44 µM | IGROV-1 1.78 µM | HOP-92 1.68 µM | NCI-H226 2.2 µM
active: SR 1.02 µM | 786-0 0.766 µM | CCRF-CEM 0.453 µM

Cc1ccc(S(=O)(=O)n2c3c(c4ccccc42)CCN2C(=O)C(S(=O)(=O)c4ccccc4)=CCC32)cc1 (stereo not given)
active: UACC-62 0.27 µM | M14 0.175 µM | SK-MEL-28 0.168 µM | COLO 205 0.236 µM | LOX IMVI 0.185 µM | UACC-257 0.169 µM | SR 0.255 µM | 786-0 0.178 µM | MDA-MB-435 0.211 µM | SNB-75 0.157 µM | UO-31 0.234 µM | HCT-116 0.17 µM | CCRF-CEM 0.228 µM | SW-620 0.281 µM | IGROV-1 0.184 µM | HOP-92 0.149 µM
inactive: SK-OV-3 1.3 µM | A549 1.22 µM | SF-295 1.79 µM | NCI-H226 1.77 µM

CCCCCCCCC/C=C1/CC(CO)(COC(=O)C2CCCCC2)OC1=O (stereo not given)
inactive: UACC-62 > 100 µM | M14 > 100 µM | SK-MEL-28 > 100 µM | COLO 205 34 µM | LOX IMVI 72.4 µM | UACC-257 > 100 µM | SR > 100 µM | 786-0 > 100 µM | MDA-MB-435 98.4 µM | SNB-75 > 100 µM | SK-OV-3 > 100 µM | UO-31 > 100 µM | HCT-116 > 100 µM | CCRF-CEM > 100 µM | SW-620 > 100 µM | A549 > 100 µM | SF-295 > 100 µM | IGROV-1 > 100 µM | HOP-92 > 100 µM | NCI-H226 > 100 µM

C[C@H](CCC(=O)O)[C@H]1CC[C@@]2(C)[C@@H]3C(=O)C[C@H]4C(C)(C)[C@@H](O)CC[C@]4(C)[C@H]3C(=O)C[C@]12C
inactive: UACC-62 > 100 µM | M14 > 100 µM | SK-MEL-28 > 100 µM | COLO 205 > 100 µM | LOX IMVI > 100 µM | UACC-257 > 100 µM | SR > 100 µM | 786-0 > 100 µM | MDA-MB-435 > 100 µM | SNB-75 > 100 µM | SK-OV-3 > 100 µM | UO-31 13.9 µM | HCT-116 > 100 µM | CCRF-CEM > 100 µM | SW-620 > 100 µM | A549 > 100 µM | SF-295 > 100 µM | IGROV-1 > 100 µM | HOP-92 > 100 µM | NCI-H226 > 100 µM

O=C1NC(N2CCOCC2)=N/C1=C\c1ccco1
inactive: UACC-62 > 100 µM | M14 > 100 µM | SK-MEL-28 > 100 µM | COLO 205 > 100 µM | LOX IMVI > 100 µM | UACC-257 > 100 µM | SR > 100 µM | 786-0 > 100 µM | MDA-MB-435 > 100 µM | SNB-75 > 100 µM | SK-OV-3 > 100 µM | UO-31 > 100 µM | HCT-116 > 100 µM | CCRF-CEM > 100 µM | SW-620 > 100 µM | A549 > 100 µM | SF-295 > 100 µM | IGROV-1 > 100 µM | HOP-92 > 100 µM | NCI-H226 > 100 µM
